The values that follow come from patent US8809377B2, “Deubiquitinase inhibitors and methods for use of the same” (The Regents of the University of Michigan, priority 2010, dated 2014).

Format in all cases: cell-based
In one assay the target is T1, UCH37 (Homo sapiens, UniProt Q9Y5K5).
T1 construct: endogenous in cells; host or cells: Z138
The experiment in a line: HA-UbVs labeling of UCH37. The settings on record: Z138 cells, 1, 5 or 10 μM, 1 hour. The protocol:
(§1) To assay for changes in activity of cellular deubiquitinase enzymes, Z138 and HEK293 cells were lysed in DUB buffer (50 mM Tris pH 7.4, 5 mM MgCl2, 150 mM NaCl) for 10 min at 4° C. The lysates were centrifuged at 20,000 RFC for 10 min and the supernatant was used for DUB labeling. Equal amounts of lysate were incubated with 500 ng of HA-UbVs for 1 hr at room temperature, followed by boiling in reducing sample buffer and resolving by SDS-PAGE. After protein transfer to nitrocellulose membranes, HA immunoblotting was used to detect DUB labeling.
Hemagglutinin-tagged ubiquitin vinyl methyl sulfone (HA-UbVs) acts as a DUB suicide substrate, forming a covalent adduct with active DUB enzymes. Specific cellular DUBs can be identified by anti-HA blotting, as previously shown in various cell types. Changes in specific DUB activities are measurable by monitoring HA-labeling in lysates from control and treated cells. Z138 cells were treated with WP1130 at 1, 5, or 10 μM or AG490 at 250 μM for 1 hours and lysed. 20 μg of clarified supernatant was incubated with 200 nM of HA-UbVS for 1 hr at 37° C. […] An in vitro analysis using cell lysates was performed to investigate direct DUB inhibition by WP1130. Briefly, untreated Z138 cell lysates were incubated with 5 μM WP1130 or vehicle alone for one hour at 37° C., followed by labeling with HA-UbVs.

In a further assay the target is T2, USP5 (Homo sapiens, UniProt P45974).
T2 construct: endogenous in cells; host or cells: Z138
T2 sequence (P45974 1-858): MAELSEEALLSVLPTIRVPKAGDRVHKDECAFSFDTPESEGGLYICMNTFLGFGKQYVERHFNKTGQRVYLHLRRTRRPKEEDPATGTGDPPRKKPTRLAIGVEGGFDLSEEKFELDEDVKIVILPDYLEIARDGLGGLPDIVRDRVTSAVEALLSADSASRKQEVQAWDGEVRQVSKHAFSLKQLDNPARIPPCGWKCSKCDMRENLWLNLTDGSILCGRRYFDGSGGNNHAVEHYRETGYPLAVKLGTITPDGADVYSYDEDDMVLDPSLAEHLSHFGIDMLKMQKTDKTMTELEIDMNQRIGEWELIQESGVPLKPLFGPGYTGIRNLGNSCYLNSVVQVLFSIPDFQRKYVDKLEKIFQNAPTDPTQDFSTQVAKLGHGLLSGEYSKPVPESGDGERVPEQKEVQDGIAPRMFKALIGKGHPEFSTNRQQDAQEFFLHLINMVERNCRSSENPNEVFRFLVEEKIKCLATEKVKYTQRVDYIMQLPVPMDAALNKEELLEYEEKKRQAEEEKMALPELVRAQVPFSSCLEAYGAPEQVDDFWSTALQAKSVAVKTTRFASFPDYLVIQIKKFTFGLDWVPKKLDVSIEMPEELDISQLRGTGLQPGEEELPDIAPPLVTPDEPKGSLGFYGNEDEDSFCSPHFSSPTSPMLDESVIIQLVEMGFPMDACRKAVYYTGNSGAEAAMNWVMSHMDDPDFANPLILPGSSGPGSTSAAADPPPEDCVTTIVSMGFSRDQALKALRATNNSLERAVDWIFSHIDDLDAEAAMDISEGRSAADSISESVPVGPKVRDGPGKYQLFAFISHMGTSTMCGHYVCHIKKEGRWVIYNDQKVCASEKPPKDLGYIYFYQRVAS
Nature of the assay: HA-UbVs labeling of USP5. The protocol:
as §1
Hemagglutinin-tagged ubiquitin vinyl methyl sulfone (HA-UbVs) acts as a DUB suicide substrate, forming a covalent adduct with active DUB enzymes. Specific cellular DUBs can be identified by anti-HA blotting, as previously shown in various cell types. Changes in specific DUB activities are measurable by monitoring HA-labeling in lysates from control and treated cells. […]
USP9x was immunoprecipitated from Z138 cell lysates, prepared in DUB buffer and the beads were incubated with vehicle alone or WP1130 for 30 min. Ub-AMC (500 nM) was added to each reaction and fluorescence was monitored every minute for up to 30 minutes. The maximum fluorescence observed at the end of the linear phase of substrate cleavage in control and WP1130 treated DUBs was used as a gauge to estimate DUB activity and % inhibition. […]

The next assay deals with Toxoplasma gondii. The experiment in a line: Toxoplasma gondii replication in human foreskin fibroblasts. The protocol:
Primary human foreskin fibroblasts (HFF) were infected with trachyzoites in the presence of WP1130 or vehicle control for 24 hours. […] 1.25×10^5 tachyziotes (RH strain) (MOI=1) were added to each well of a chamber slide in the presence of WP1130 or vehicle control. At 24 hours post infection, cells were fixed in 4% paraformaldehyde for fifteen minutes. Cells were then washed with PBS and analyzed by immunofluorescence microscopy. Parasites were stained with an anti-SAG 1 antibody (the immunodominant surface antigen of T. gondii) followed by an Alexa 594-labeled secondary antibody and DAPI. For quantitative analysis the number of parasites/vacuole were counted.
WP1130 also blocks the replication of the apicomplexan Toxoplasma gondii in primary human foreskin fibroblasts. Cells were treated with WP1130 and infected with tachyziotes (RH strain) (MOI 1) for 24 hr before performing immunofluorescence and counting parasite-containing vacuoles.

Another assay deals with DUB activity. Nature of the assay: Western / HA-UbVS labeling of DUB activity in intact cells. The protocol:
To assay for changes in activity of cellular deubiquitinase enzymes, leukemic cells were lysed in DUB buffer (50 mM Tris pH 7.4, 5 mM MgCl2, 150 mM NaCl) for 10 min at 4° C. The lysates were centrifuged at 20,000 RCF for 10 min and the supernatant was used for DUB labeling. Equal amounts of lysate were incubated with 500 ng of HA-UbVs for 1 hr at room temperature, followed by boiling in reducing sample buffer and resolving by SDS-PAGE. HA immunoblotting was used to detect DUB labeling.
as §1
Cancer Res, 2010. 70(22): p. […] Blood, 2011. 117(11): p. […] Biochem Pharmacol, 2011. 82(4): p. […] Blood, 2007. 109(8): p. 3470-8.

Where [1] appears, read: primary human foreskin fibroblasts, RH strain MOI 1, 24 hr.

T1 sequence (Q9Y5K5 whole entry): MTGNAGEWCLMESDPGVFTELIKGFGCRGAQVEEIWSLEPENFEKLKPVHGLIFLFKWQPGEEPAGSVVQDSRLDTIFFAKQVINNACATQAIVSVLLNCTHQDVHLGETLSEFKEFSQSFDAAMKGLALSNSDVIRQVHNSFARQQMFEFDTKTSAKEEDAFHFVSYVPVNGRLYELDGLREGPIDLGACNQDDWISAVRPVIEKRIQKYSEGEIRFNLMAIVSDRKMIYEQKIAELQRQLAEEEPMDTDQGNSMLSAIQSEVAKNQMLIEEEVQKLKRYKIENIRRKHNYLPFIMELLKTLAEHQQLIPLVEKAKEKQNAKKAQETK

Turning to `CCC[C@H](NC(=O)/C(C#N)=C/c1cccc(Br)n1)c1ccccc1` [WP1130], the “HA-UbVS labeling of UCH37” value at UCH37 was “dose-dependent and time reduction in the labeling”. Further, at USP5 (HA-UbVs labeling upon incubation with compound), the “reduction in HA labeling of USP5” value is “about 80%”. In addition, on USP5 (Z138 cells, 1, 5 or 10 μM, 1 hour), the “HA-UbVS labeling of USPS” value is “dose-dependent and time reduction in the labeling”. Further, the “number of parasites per vacuole” value in the assay on Toxoplasma gondii (HFF, 5 μM, 24 hours post infection) was “significantly reduced”. In the assay with Toxoplasma gondii (setting [1]), the “decrease in the vacuoles containing 4 parasites” value is roughly 5 fold and the “increase in the number of vacuoles containing only 1 parasite” value is recorded as roughly 3 fold. In the assay with DUB activity (RAW 264.7, 1.25 μM), the “blocking MNV-1 or DUB activation associated with MNV-1 infection” value is given as “ineffective”. Moreover, in the assay on DUB activity (RAW 264.7, anti-viral effective concentrations), the “DUB activity induced by MNV-1 infection (HA-UbVS)” value is on record as “block DUB activity”.
